The values below come from BindingDB's records for patent US12065436 (Cytokinetics, 2024).

One may read the IC50 as the midpoint of a concentration-inhibition curve.

T1 sequence (Q9BE39 whole entry, looked up): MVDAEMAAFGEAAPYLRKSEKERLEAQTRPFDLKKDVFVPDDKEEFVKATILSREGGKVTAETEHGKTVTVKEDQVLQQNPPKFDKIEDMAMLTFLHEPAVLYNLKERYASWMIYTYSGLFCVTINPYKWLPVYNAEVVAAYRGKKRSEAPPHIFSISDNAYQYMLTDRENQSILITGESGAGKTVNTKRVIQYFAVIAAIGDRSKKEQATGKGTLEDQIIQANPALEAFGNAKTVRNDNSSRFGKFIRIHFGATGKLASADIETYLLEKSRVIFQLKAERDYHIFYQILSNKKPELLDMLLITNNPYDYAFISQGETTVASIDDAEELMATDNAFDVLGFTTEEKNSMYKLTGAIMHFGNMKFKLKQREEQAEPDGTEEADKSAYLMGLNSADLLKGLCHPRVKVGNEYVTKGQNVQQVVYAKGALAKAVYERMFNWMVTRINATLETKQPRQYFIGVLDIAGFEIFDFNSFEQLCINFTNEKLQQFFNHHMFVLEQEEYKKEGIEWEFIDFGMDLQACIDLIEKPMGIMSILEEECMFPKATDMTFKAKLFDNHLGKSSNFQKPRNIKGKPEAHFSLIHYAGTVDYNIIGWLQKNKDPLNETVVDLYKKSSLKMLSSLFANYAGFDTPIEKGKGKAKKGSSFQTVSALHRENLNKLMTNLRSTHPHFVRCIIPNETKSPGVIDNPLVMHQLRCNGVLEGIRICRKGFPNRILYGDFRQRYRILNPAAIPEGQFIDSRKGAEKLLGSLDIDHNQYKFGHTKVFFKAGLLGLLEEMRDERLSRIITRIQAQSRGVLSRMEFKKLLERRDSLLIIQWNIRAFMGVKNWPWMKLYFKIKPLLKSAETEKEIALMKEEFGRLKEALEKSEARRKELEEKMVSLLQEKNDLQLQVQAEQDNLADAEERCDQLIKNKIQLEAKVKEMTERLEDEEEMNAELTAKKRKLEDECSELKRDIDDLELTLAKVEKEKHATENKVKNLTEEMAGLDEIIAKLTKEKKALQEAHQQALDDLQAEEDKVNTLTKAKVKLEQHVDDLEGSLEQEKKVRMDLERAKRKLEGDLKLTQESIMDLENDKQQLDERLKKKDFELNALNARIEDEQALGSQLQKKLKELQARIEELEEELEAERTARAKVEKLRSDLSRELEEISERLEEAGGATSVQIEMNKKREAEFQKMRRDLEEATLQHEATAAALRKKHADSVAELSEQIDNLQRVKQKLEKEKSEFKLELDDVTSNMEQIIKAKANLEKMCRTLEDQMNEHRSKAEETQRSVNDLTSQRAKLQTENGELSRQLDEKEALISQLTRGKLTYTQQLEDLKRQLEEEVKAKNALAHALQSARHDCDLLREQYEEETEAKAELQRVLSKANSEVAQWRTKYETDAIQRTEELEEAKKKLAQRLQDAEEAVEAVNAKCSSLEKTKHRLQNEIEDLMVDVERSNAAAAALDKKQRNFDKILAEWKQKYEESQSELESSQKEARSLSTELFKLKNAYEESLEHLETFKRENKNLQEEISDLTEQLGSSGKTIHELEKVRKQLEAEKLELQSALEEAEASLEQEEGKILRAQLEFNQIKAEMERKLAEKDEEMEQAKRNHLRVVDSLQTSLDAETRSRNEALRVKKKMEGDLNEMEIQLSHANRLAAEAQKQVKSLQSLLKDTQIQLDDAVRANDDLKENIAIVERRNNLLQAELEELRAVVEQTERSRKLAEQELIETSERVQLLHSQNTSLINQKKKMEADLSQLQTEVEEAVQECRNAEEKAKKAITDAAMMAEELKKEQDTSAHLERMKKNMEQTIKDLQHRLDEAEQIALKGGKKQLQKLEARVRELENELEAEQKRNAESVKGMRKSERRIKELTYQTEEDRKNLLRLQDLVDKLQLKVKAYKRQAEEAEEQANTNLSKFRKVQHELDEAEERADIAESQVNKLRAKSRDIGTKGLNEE

This assay addresses T1, Myosin-7 (Bos taurus, UniProt Q9BE39).
T1 construct: gene MYH7
Nature of the assay: Myofibril Assays. The procedure:
To evaluate the effect of compounds on the ATPase activity of full-length cardiac myosin in the context of the native sarcomere, skinned myofibril assays were performed. Bovine cardiac myofibrils were obtained by homogenizing bovine cardiac left ventricular tissue in the presence of a detergent such as triton X-100. Such treatment removes membranes and a majority of the soluble cytoplasmic proteins but leaves intact the cardiac sarcomeric acto-myosin apparatus. Myofibril preparations retain the ability to hydrolyze ATP in an Ca2+ regulated manner. […] Small molecule agents were assessed for their ability to inhibit the steady-state ATPase activity of bovine cardiac myofibrils using pyruvate kinase and lactate dehydrogenase (PK/LDH)-coupled enzyme system. This assay regenerates myosin-produced ADP into ATP by oxidizing NADH, producing an absorbance change at 340 nm.
Compound `Cc1nc(-c2ccc3c(c2)CCC3NC(=O)Nc2cnccn2)no1` (stereo not given) [US12065436, Compound 86] had an IC50 of 14.9 µM. With `Cc1cc(C(=O)NC2CCc3cc(-c4noc(C(F)F)n4)ccc32)on1` (stereo not given) [US12065436, Compound 102] the figure was 5.8 µM. In the case of `Cn1cc(C(=O)N[C@@H]2CCc3cc(-c4noc(C5CCC5)n4)ccc32)cn1` [US12065436, Compound 411] it was 3.2 µM; in that of `Cc1cnoc1C(=O)N[C@@H]1CCc2cc(-c3noc(C(F)F)n3)ccc21` [US12065436, Compound 93], 0.9 µM. In the case of `CCc1nc(-c2ccc3c(c2)CC[C@H]3NC(=O)c2cnn(C3CN(C(=O)OC)C3)c2)no1` [US12065436, Compound 480], the IC50 is 39.2 µM. `Cc1cnoc1C(=O)NC1CCc2cc(-c3noc(C(F)F)n3)ccc21` (stereo not given) [US12065436, Compound 103] showed a concentration for half-maximal inhibition (IC50) of 2.2 µM. The compound `COCc1nc(-c2ccc3c(c2)CC[C@H]3NC(=O)c2cnc(C)n2C)no1` [US12065436, Compound 691] came in with an IC50 of 5.8 µM.

`O=C(N[C@@H]1CCc2cc(-c3noc(C4CC4)n3)ccc21)C1CC1` [US12065436, Compound 318]: the half-inhibitory concentration (IC50) is 9.3 µM. In the case of `CCc1cc(-c2ccc3c(c2)CC[C@H]3NC(=O)OC)no1` [US12065436, Compound 345] it was 0.8 µM; in that of `CCc1nc(-c2ccc3c(c2)CC[C@H]3NC(=O)c2cnn(C3CN(C(=O)OC(C)(C)C)C3)c2)no1` [US12065436, Compound 471], 7.1 µM.
